Data taken from US20240381872A1, “SUBSTITUTED 2,3-DIHYDRO[1,3]THIAZOLO[4,5-B]PYRIDINES, SALTS THEREOF AND THEIR USE AS HERBICIDALLY ACTIVE SUBSTANCES” (BAYER AKTIENGESELLSCHAFT, priority 2021, published 2024).

Columns and labels:
Format in all cases: in vivo
[1] = test system: Echinochloa crus-galli (ECHCG); assay: Herbicidal pre-emergence action, section A (Table A3); conditions: application rate 1280 g/ha, visual grading after ca. 3 weeks vs untreated controls; for pest or weed control at 1280 g/ha: Echinochloa crus-galli, pre-emergence, 504 h, read-out: pre-emergence activity against ECHCG in %
Excerpt: (§1) Seeds of mono- and dicotyledonous weed plants were sown in plastic pots (double sowings with one species of mono- and one species of dicotyledonous weed plants per pot), in sandy loam, and covered with soil. The compounds according to the invention, formulated in the form of wettable powders (WP) or as emulsifiable concentrates (EC), were applied to the surface of the covering soil as aqueous suspension or emulsion, with the addition of 0.5% of an additive, at an application rate of 600 l of water per hectare (converted). Following treatment, the pots were placed in a greenhouse and kept under optimum growth conditions for the test plants. The visual grading of the damage to the test plants was carried out after ca. 3 weeks in comparison to untreated controls (herbicidal effect in percent (%): 100% effect=plants have died off, 0% effect=as control plants).

Kochia scoparia (KCHSC) [2] = assay: Herbicidal pre-emergence action, section A (Table A4); conditions: Bassia scoparia, pre-emergence, 504 h, visual grading after ca. 3 weeks vs untreated controls, read-out: pre-emergence activity against KCHSC in %; for pest or weed control at 1280 g/ha: application rate 1280 g/ha
Excerpt: as §1

Poa annua (POAAN) [3] = assay: Herbicidal pre-emergence action, section A (Table A7); conditions: application rate 1280 g/ha, visual grading after ca. 3 weeks vs untreated controls; for pest or weed control at 1280 g/ha: Poa annua, pre-emergence, 504 h, read-out: pre-emergence activity against POAAN in %
Excerpt: as §1

Setaria viridis (SETVI) = assay: Herbicidal pre-emergence action, section A (Table A8); conditions: for pest or weed control at 320 g/ha: application rate 320 g/ha
Excerpt: as §1

Stellaria media (STEME) [4] = assay: Herbicidal pre-emergence action, section A (Table A9); conditions: application rate 1280 g/ha; for pest or weed control at 1280 g/ha: Stellaria media, 504 h, read-out: pre-emergence activity against STEME in %
Excerpt: as §1

[5] = test system: Amaranthus retroflexus (AMARE); assay: Herbicidal pre-emergence action, section A (Table A11)
Excerpt: as §1

[6] = test system: Digitaria sanguinalis (DIGSA); assay: Herbicidal pre-emergence action, section A (Table A12); conditions: Digitaria sanguinalis, 504 h, application rate 1280 g/ha, read-out: pre-emergence activity against DIGSA in %
Excerpt: as §1

Poa annua (POAAN) [7] = assay: Herbicidal post-emergence action, section B (Table B7); conditions: Poa annua, post-emergence, 504 h; application rate 1280 g/ha; visual rating about 3 weeks after treatment vs untreated controls; read-out: post-emergence activity against POAAN in %
Method: (§2) Seeds of mono- and dicotyledonous weed plants were placed in plastic pots in sandy loam soil (doubly sown with in each case one species of mono- or dicotyledonous weed plants per pot), covered with soil and cultivated in a greenhouse under controlled growth conditions. 2 to 3 weeks after sowing, the test plants were treated at the one-leaf stage. The compounds of the invention, formulated in the form of wettable powders (WP) or as emulsion concentrates (EC), were applied onto the green parts of the plants as aqueous suspension or emulsion with addition of 0.5% additive at a water application rate of 600 liters per hectare (converted). After the test plants had been kept in the greenhouse under optimum growth conditions for about 3 weeks, the activity of the preparations was rated visually in comparison to untreated controls. For example, 100% activity=the plants have died, 0% activity=like control plants.

Veronica persica (VERPE) [8] = assay: Herbicidal post-emergence action, section B (Table B10); conditions: application rate 1280 g/ha; visual rating about 3 weeks after treatment vs untreated controls
Method: as §2

[9] = test system: Amaranthus retroflexus (AMARE); assay: Herbicidal post-emergence action, section B (Table B11); conditions: visual rating about 3 weeks after treatment vs untreated controls
Method: as §2

Lolium rigidum (LOLRI) = assay: Herbicidal pre-emergence action, section A (Table A5); conditions: Lolium rigidum, pre-emergence, 504 h; application rate 1280 g/ha; visual grading after ca. 3 weeks vs untreated controls; read-out: pre-emergence activity against LOLRI in %
Excerpt: as §1

[10] = test system: Matricaria inodora (MATIN); assay: Herbicidal pre-emergence action, section A (Table A6); conditions: Tripleurospermum inodorum, pre-emergence, 504 h; application rate 1280 g/ha; visual grading after ca. 3 weeks vs untreated controls; read-out: pre-emergence activity against MATIN in %
Excerpt: as §1

Kochia scoparia (KCHSC) [11] = assay: Herbicidal post-emergence action, section B (Table B4); conditions: visual rating about 3 weeks after treatment vs untreated controls
Method: as §2

Stellaria media (STEME) [12] = assay: Herbicidal post-emergence action, section B (Table B9); conditions: Stellaria media, post-emergence, 504 h; application rate 1280 g/ha; visual rating about 3 weeks after treatment vs untreated controls; read-out: post-emergence activity against STEME in %
Method: as §2

Veronica persica (VERPE) [13] = assay: Herbicidal pre-emergence action, section A (Table A10); conditions: application rate 1280 g/ha
Excerpt: as §1

[14] = Amaranthus retroflexus, 504 h, application rate 1280 g/ha, read-out: pre-emergence activity against AMARE in %
[15] = Setaria viridis, 504 h, read-out: pre-emergence activity against SETVI in %

CCS(=O)(=O)N1C[S+]([O-])c2cc(Br)c(-c3ccccc3Cl)nc21 (centres unmarked) [Example I-134] gave a pest or weed control at 1280 g/ha [1] of 100%, a pest or weed control at 1280 g/ha (Kochia scoparia (KCHSC) [2]) of 90% and a pest or weed control at 1280 g/ha (Poa annua (POAAN) [3]) of 100%. The pest or weed control at 1280 g/ha (Setaria viridis (SETVI); Setaria viridis, 504 h, application rate 1280 g/ha, read-out: pre-emergence activity against SETVI in %) was 100%, the pest or weed control at 1280 g/ha (Stellaria media (STEME) [4]) was 90% and the pest or weed control at 1280 g/ha [5, 14] was 90%. The pest or weed control at 1280 g/ha [6] was 100% and the pest or weed control at 1280 g/ha (Poa annua (POAAN) [7]) was 90%.
For O=C(N1CSc2cc(Br)c(-c3cccc(Cl)c3F)nc21)C12CCCC1C(Cl)=NO2 (centres unmarked) [Example I-126], the “pre-emergence activity against SETVI in %” value (Setaria viridis (SETVI); application rate 1280 g/ha) was 90%, the “pre-emergence activity against STEME in %” value (Stellaria media (STEME) [4]) was 90% and the “pre-emergence activity against AMARE in %” value ([5]; application rate 320 g/ha) was 90%. The “post-emergence activity against VERPE in %” value (Veronica persica (VERPE) [8]) was 90% and the “post-emergence activity against AMARE in %” value ([9]; application rate 320 g/ha) was 90%.
With Cc1cc2c(nc1-c1cccc(F)c1F)N(C(=O)C(C)C)C[S+]2[O-] (centres unmarked) [Example I-028] the pest or weed control at 320 g/ha (Kochia scoparia (KCHSC) [2]; application rate 320 g/ha) was 90%, the pest or weed control at 1280 g/ha (Lolium rigidum (LOLRI)) was 100% and the pest or weed control at 1280 g/ha [10] was 90%. It also gave a pest or weed control at 1280 g/ha (Poa annua (POAAN) [3]) of 100%, a pest or weed control at 320 g/ha (Setaria viridis (SETVI); [15]) of 100% and a pest or weed control at 1280 g/ha (Stellaria media (STEME) [4]) of 90%. It also gave a pest or weed control at 320 g/ha ([5]; Amaranthus retroflexus, 504 h, application rate 320 g/ha, read-out: pre-emergence activity against AMARE in %) of 90%, a pest or weed control at 1280 g/ha [6] of 100% and a pest or weed control at 320 g/ha (Kochia scoparia (KCHSC) [11]; Bassia scoparia, post-emergence, 504 h, application rate 320 g/ha, read-out: post-emergence activity against KCHSC in %) of 90%. It also gave a pest or weed control at 1280 g/ha (Stellaria media (STEME) [12]) of 90%.
In the case of COc1ccccc1-c1nc2c(cc1C)[S+]([O-])CN2S(C)(=O)=O (centres unmarked) [Example I-101], the pest or weed control at 1280 g/ha [1] is reported as 90%, the pest or weed control at 1280 g/ha (Kochia scoparia (KCHSC) [2]) is reported as 90% and the pest or weed control at 1280 g/ha (Lolium rigidum (LOLRI)) is reported as 100%. For the same molecule, the pest or weed control at 320 g/ha (Setaria viridis (SETVI); [15]) was 100%, the pest or weed control at 1280 g/ha [5, 14] was 90% and the pest or weed control at 1280 g/ha [6] was 90%. The pest or weed control at 1280 g/ha (Kochia scoparia (KCHSC) [11]; Bassia scoparia, post-emergence, 504 h, application rate 1280 g/ha, read-out: post-emergence activity against KCHSC in %) was 90%.
With Cc1cc2c(nc1-c1cccc(Cl)c1F)N(S(C)(=O)=O)CS2 [Example I-111] the “pre-emergence activity against ECHCG in %” value [1] was 100%, the “pre-emergence activity against STEME in %” value (Stellaria media (STEME) [4]) was 90% and the “post-emergence activity against KCHSC in %” value (Kochia scoparia (KCHSC) [11]; application rate 1280 g/ha) was 90%.
O=C(c1ccccc1C(F)(F)F)N1CSc2cc(Br)c(-c3ccc(F)cc3F)nc21 [Example I-043] was tested, and the “pre-emergence activity against POAAN in %” value (Poa annua (POAAN) [3]) was 90% and the “post-emergence activity against AMARE in %” value ([9]; application rate 1280 g/ha) was 90%.
In the case of CCS(=O)(=O)N1CSc2cc(Br)c(-c3cccc(Cl)c3F)nc21 [Example I-132], the “pre-emergence activity against VERPE in %” value (Veronica persica (VERPE) [13]) is reported as 90%, the “post-emergence activity against VERPE in %” value (Veronica persica (VERPE) [8]) is reported as 90% and the “post-emergence activity against AMARE in %” value ([9]; application rate 1280 g/ha) is reported as 90%.
For Cc1cccc(-c2nc3c(cc2Br)SCN3C(=O)C2(C)CC(Cl)=NO2)c1C (centres unmarked) [Example I-140], the “pre-emergence activity against POAAN in %” value (Poa annua (POAAN) [3]) was 100%, the “pre-emergence activity against STEME in %” value (Stellaria media (STEME) [4]) was 90% and the “pre-emergence activity against AMARE in %” value ([5]; application rate 1280 g/ha) was 90%.
